According to patent US9629843B2, “MTOR modulators and uses thereof” (The Regents of the University of California, priority 2008, dated 2017):
Blank lines part the entries; values can stand above or below the compound they belong to.

Tests used:
mTor = target: T1, mTor (Homo sapiens, UniProt P42345); experiment: Kinase inhibition assay, mTor; assay type: biochemical
T1 construct: Purified kinase domains (e.g. mTor, P110α, P110β, P110γ, P110δ, PI4Kβ, DNA-PK, PKCα, PKCβ1, PKCβII, RET, and JAK2)

PI3K α = target: T2, PI3K α (Homo sapiens, UniProt P42336); experiment: Kinase inhibition assay, PI3K α; assay type: biochemical
T2 construct: Purified kinase domains (e.g. mTor, P110α, P110β, P110γ, P110δ, PI4Kβ, DNA-PK, PKCα, PKCβ1, PKCβII, RET, and JAK2)
T2 sequence (P42336 765-1051 limits assumed): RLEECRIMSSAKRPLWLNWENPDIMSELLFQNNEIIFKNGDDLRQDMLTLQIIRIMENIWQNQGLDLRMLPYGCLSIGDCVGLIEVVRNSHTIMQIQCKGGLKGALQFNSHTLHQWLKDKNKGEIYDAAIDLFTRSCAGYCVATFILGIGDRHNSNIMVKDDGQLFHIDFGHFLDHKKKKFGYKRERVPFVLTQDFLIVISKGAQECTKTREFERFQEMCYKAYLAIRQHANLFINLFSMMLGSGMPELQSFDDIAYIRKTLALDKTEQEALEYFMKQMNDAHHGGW
T2 sequence (P27986 whole entry partner, the tested form may be a part): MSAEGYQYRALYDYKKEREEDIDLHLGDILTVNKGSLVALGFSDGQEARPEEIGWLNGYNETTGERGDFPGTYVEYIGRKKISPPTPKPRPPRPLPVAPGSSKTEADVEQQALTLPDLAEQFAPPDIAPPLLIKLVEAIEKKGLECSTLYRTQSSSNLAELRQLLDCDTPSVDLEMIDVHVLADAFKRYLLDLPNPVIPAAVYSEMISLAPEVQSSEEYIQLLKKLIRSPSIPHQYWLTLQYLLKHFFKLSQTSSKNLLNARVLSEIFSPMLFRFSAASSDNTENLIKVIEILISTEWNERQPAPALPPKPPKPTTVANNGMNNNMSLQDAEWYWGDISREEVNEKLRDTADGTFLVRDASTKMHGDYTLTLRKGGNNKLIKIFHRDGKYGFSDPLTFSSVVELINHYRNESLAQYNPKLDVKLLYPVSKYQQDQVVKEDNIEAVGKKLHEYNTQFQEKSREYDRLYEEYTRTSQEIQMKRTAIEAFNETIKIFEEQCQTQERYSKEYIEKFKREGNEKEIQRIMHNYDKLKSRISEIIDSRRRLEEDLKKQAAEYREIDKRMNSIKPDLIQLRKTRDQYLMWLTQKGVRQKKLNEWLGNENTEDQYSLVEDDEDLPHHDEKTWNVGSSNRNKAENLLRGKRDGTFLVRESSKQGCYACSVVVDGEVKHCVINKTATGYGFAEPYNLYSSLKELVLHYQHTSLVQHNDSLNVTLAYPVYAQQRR

PC3 cells = experiment: Inhibition of proliferation of PC3 cells; assay type: cell-based; details: Homo sapiens, PC-3
PI3K β = target: T3, PI3K β (Homo sapiens, UniProt P42338); experiment: Kinase inhibition assay, PI3K β; assay type: biochemical
T3 construct: Purified kinase domains (e.g. mTor, P110α, P110β, P110γ, P110δ, PI4Kβ, DNA-PK, PKCα, PKCβ1, PKCβII, RET, and JAK2)
T3 sequence (P42338 772-1053 limits assumed): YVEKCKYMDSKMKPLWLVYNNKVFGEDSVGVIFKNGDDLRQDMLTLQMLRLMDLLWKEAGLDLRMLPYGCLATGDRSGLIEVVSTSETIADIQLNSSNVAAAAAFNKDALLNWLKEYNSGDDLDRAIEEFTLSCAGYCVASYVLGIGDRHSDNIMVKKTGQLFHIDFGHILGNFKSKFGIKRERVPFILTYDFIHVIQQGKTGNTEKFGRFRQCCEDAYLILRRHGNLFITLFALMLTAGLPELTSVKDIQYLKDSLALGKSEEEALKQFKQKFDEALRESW
T3 sequence (P27986 whole entry partner, the tested form may be a part): as the sequence (P27986 whole entry partner, the tested form may be a part) above

PI3K γ = target: T4, PI3K γ (Homo sapiens, UniProt P48736); experiment: Kinase inhibition assay, PI3K γ; assay type: biochemical
T4 construct: Purified kinase domains (e.g. mTor, P110α, P110β, P110γ, P110δ, PI4Kβ, DNA-PK, PKCα, PKCβ1, PKCβII, RET, and JAK2)
T4 sequence (P48736 797-1080 limits assumed): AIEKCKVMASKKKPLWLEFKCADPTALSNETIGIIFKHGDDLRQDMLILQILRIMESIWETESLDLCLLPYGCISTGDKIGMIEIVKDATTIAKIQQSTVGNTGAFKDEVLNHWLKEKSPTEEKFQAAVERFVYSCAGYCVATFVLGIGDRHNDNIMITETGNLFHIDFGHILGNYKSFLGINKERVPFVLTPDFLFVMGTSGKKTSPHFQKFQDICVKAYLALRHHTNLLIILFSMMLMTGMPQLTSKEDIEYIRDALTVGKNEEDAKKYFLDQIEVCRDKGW

PI3K δ = target: T5, PI3K δ (Homo sapiens, UniProt O00329); experiment: Kinase inhibition assay, PI3K δ; assay type: biochemical
T5 construct: Purified kinase domains (e.g. mTor, P110α, P110β, P110γ, P110δ, PI4Kβ, DNA-PK, PKCα, PKCβ1, PKCβII, RET, and JAK2)
T5 sequence (O00329 745-1027 limits assumed): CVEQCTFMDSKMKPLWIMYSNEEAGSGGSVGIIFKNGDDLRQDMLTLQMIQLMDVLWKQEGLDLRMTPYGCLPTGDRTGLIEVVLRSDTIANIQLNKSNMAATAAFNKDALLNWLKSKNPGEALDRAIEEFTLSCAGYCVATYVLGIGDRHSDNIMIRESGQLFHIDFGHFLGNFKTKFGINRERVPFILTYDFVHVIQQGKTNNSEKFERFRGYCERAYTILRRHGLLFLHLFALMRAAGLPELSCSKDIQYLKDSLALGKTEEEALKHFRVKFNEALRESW
T5 sequence (P27986 whole entry partner, the tested form may be a part): as the sequence (P27986 whole entry partner, the tested form may be a part) above

p190 transduced cells [1] = experiment: MTS viability assay of p190 transduced cells; assay type: cell-based, murine
p190 transduced cells [2] = experiment: Combination with imatinib on p190 transduced cells (MTS, combination index); assay type: cell-based, murine
[3] = system: p190 BCR-Abl transformed bone marrow cells; experiment: Colony forming assay with p190 BCR-Abl transformed murine bone marrow cells; assay type: cell-based; details: compared to rapamycin; FIG. 17
[4] = system: ENaC-dependent Na+ current; experiment: ENaC-dependent Na+ transport in mpkCCD cells; details: prolonged treatment (>24 h)
[5] = system: CD19+ CD34+ B cell progenitors from Ph+ and Ph− patients; experiment: Colony forming assay with human B-ALL cells; assay type: cell-based; details: about 50 nM dasatinib; FIG. 18
p190 leukemic cells = experiment: Syngenic mouse leukemia transplant model (p190); assay type: in vivo, Balb/c mice; details: for number of cycling leukemic blasts / apoptosis of leukemic blast cells: bone marrow and spleen; for number of cycling leukemic blasts: FIG. 23; for apoptosis of leukemic blast cells: FIG. 24
Description: The murine bone marrow infection/transplantation method was used to determine the effect of kinase inhibitors on disregulated cellular proliferation […]. The MSCV-p190-BCR-Abl-Ires-GFP (MIG-p190) or MSCV-p190-BCR-Abl-Ires-hCD4Δtail (MIC-p190) retroviral vectors were assembled in 293T cells and used to transduce bone marrow cells. The GFP and CD4Δtail markers allow quantitation by FACS analysis and/or enrichment by magnetic sorting of transduced cells.
These cells were administered together with a radioprotective dose of about 5×10^6 normal bone marrow cells from 3-5 week old donor Balb/c mice. […] Mice who became sick after about 14 days were euthanized and lymphoid organs were harvested for analysis. Kinase inhibitor treatment began about 10 days after leukemic cell injection and continued daily until the mice became sick or a maximum of approximately 35 days post-transplant. Inhibitors were given by oral lavage.
Peripheral blood cells were collected approximately on day 10 (pre-treatment) and upon euthanization (post treatment), contacted with labeled anti-hCD4 antibodies and counted by flow cytometry.
Mice were injected with the BrdU analogue EdU and sacrificed. Bone marrow and spleen were collected, blast cells were harvested from the tissue, and stained with antibodies to hCD4, and analyzed by flow cytomtery.
Bone marrow and spleen were collected, blast cells were harvested from the tissue, and stained with antibodies to hCD4, Annexin V, and 7AAD, and analyzed by flow cytometry. […] The results also show significant increase at the concentrations examined in induction of apoptosis at the concentrations examined of imatinib in combination with rapamycin or PI-103.

[6] = system: Akt phosphorylation (S473, T308) in L6 myotubes; experiment: Akt phosphorylation in insulin stimulated L6 myotubes (immunoblot); assay type: cell-based; details: 100 nM insulin, FIG. 3
Description: L6 myoblasts were grown typically grown in DMEM supplemented with about 10% FBS, glutamine and penicillin/streptomycin. Confluent L6 myoblasts were differentiated into mytubes by culturing them for approximately 5 days in media containing about 2% FBS. L6 myotubes were maintained in media containing approximately 2% FBS until use.
In order to compare the effect of TORKinibs and PIK-90 on Akt phosphorylation, L6 myotubes were serum starved overnight and incubated with inhibitors or about 0.1% DMSO for approximately 30 minutes prior to stimulation with insulin (e.g. 100 nM) for about 10 minutes. Cells were lysed by scraping into ice cold lysis buffer (generally: 300 mM NaCl, 50 mM Tris pH 7.5, 5 mM EDTA, 1% TRITON™ X-100, 0.02% NaN3, 20 nM microcystin, Sigma phosphatase inhibitor cocktails 1 and 2, Roche protease inhibitor cocktail and 2 mM PMSF). After contacting cells with lysis buffer, the solution was briefly sonicated. Lysates were cleared by centrifugation, resolved by SDS-PAGE, transferred to nitrocellulose and immunoblotted using antibodies to phospho-Akt S473, phospho-Akt T308, Akt, and β-actin (Cell Signaling Technologies).

[7] = system: Akt phosphorylation (S473, T308) in MEFs; experiment: Akt phosphorylation in wild-type and SIN1−/− mouse embryonic fibroblasts (immunoblot); assay type: cell-based; details: SIN1−/− MEFs
Description: Wild-type and SIN1−/− primary mouse embryonic fibroblasts (MEFs) were grown in DMEM supplemented with about 10% FBS, glutamine and penicillin/streptomycin. MEFs were treated with TORKinib at about 2.5, 0.63, and 0.16 uM; rapamycin at approximately 15 nM; or PIK-90 at 625 nM for 30 minutes prior to insulin stimulation (e.g. 100 nM) for 10 minutes. Cells were lysed by scraping into ice cold lysis buffer (typically 300 mM NaCl, 50 mM Tris pH 7.5, 5 mM EDTA, 1% TRITON™ X-100, 0.02% NaN3, 20 nM microcystin, Sigma phosphatase inhibitor cocktails 1 and 2, Roche protease inhibitor cocktail and 2 mM PMSF). After contacting cells with lysis buffer, the solution was briefly sonicated. Lysates were cleared by centrifugation, resolved by SDS-PAGE, transferred to nitrocellulose and immunoblotted using antibodies to phospho-Akt S473, phospho-Akt T308, Akt, and β-actin (Cell Signaling Technologies).

[8] = system: Akt substrates (GSK3, TSC2, FoxO1/O3a) in L6 myotubes; experiment: Phosphorylation of Akt substrates in insulin stimulated L6 myotubes; assay type: cell-based; details: FIG. 6
[9] = system: S6K, S6, 4EBP1 phosphorylation in L6 myotubes; experiment: Phosphorylation of S6K, S6 and 4EBP1 in insulin stimulated L6 myotubes; assay type: cell-based
PKCα = target: T6, PKCα (Homo sapiens, UniProt P17252); experiment: Kinase inhibition assay, PKCα; assay type: biochemical; details: at about 1 μM or less
T6 construct: Purified kinase domains (e.g. mTor, P110α, P110β, P110γ, P110δ, PI4Kβ, DNA-PK, PKCα, PKCβ1, PKCβII, RET, and JAK2)

AML = experiment: Colony assay using AML specimens; assay type: cell-based, Human; details: expected
Description: Human Ph− B-ALL and AML specimens are obtained. Ph− B-ALL and AML are cytogenetically diverse, with diverse therapeutic regimens currently in use depending on patient risk factors. The majority of Ph− B-ALL patients are treated initially with a combination of three drugs: glucocorticoid (e.g. dexamethasone), vincristine, and asparaginase or anthracycline (e.g. daunorubicin). Most AML patients receive an anthracycline only. Pilot experiments with 3 patient samples are conducted to determine concentrations of vincristine (Ph− ALL) or daunorubicin (AML) that partially reduce colony formation in methylcellulose. It is expected that these drugs are effective in the range of 0.1-1 μM (vincristine) and 3-30 nM (daunorubicin). Optionally, the Ph-ALL assays may be supplemented with dexamethasone and/or daunorubicin.

[10] = system: cap-dependent translation; experiment: Cap-dependent translation, m7GTP affinity, p190 cells; assay type: cell-based; details: IM at 5 μM; FIG. 38D
[11] = system: myristolated-Akt transgenic thymocytes tumors; experiment: Akt murine allograft tumor model; assay type: in vivo, NOD/SCID mice; details: after 20 days of treatment
Ph− B-ALL = experiment: Colony assay using Ph− B-ALL specimens; assay type: cell-based, Human; details: expected

T1 sequence (P42345 2156-2469 limits assumed): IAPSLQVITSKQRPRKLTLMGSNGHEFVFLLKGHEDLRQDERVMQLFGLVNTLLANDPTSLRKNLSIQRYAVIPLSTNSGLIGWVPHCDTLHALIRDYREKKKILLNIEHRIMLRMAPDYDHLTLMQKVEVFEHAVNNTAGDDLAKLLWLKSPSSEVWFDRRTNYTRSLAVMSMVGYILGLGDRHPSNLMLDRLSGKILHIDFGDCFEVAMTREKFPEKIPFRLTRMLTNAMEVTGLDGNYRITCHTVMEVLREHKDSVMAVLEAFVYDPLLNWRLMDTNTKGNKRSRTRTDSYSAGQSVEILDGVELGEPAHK

IC50 (mTor): 79 nM | IC50 (PI3K α): 11200 nM | IC50 (PC3 cells): 2060 nM
Compound: CC(C)n1nc(-c2cc3ccccc3[nH]2)c2c(N)ncnc21

IC50 (mTor): 0.7 nM | IC50 (PI3K α): 3460 nM | IC50 (PI3K β): 3580 nM | IC50 (PI3K γ): 450 nM | IC50 (PI3K δ): 330 nM | IC50 (PC3 cells): 38 nM
Compound: CC(C)n1nc(-c2cc3cccc(O)c3[nH]2)c2c(N)ncnc21

IC50 (mTor): 26 nM | IC50 (PI3K α): 279 nM | IC50 (PI3K β): 2160 nM | IC50 (PI3K γ): 115 nM | IC50 (PI3K δ): 395 nM | IC50 (PC3 cells): 1000 nM
Compound: CC(C)n1nc(-c2cc3ccc(O)cc3[nH]2)c2c(N)ncnc21

IC50 (mTor): 14 nM | IC50 (PI3K α): 5750 nM | IC50 (PI3K β): 25000 nM | IC50 (PI3K δ): 9800 nM | IC50 (PC3 cells): 11800 nM
Compound: CC(=O)N1CCC(n2nc(-c3cc4cc(O)ccc4[nH]3)c3c(N)ncnc32)CC1

Compound: Cn1c(=O)n(-c2ccc(C(C)(C)C#N)cc2)c2c3cc(-c4cnc5ccccc5c4)ccc3ncc21 [BEZ235]
IC50 (p190 transduced cells [1]; Mus musculus, stated as treatment concentration = IC50): ~5 nM | synergy with imatinib (combination index) (p190 transduced cells [2]; over a broad dose range, FIG. 16): moderate to strong synergy | colony forming activity in combination with imatinib [3]: potentiate the effects of a half maximal concentration of imatinib

Compound: Cc1ccccc1-n1c(Cn2cnc3c(N)ncnc32)nc2cccc(C)c2c1=O [IC87114]
type of effect on cell viability (p190 transduced cells [1]; plateau at high concentrations, 48 hrs): primarily cytostatic

Compound: O=c1cc(N2CCOCC2)oc2c(-c3ccccc3)cccc12 [LY294002, reference compound]
toxic effect of prolonged treatment [4]: diminishes electrical resistance and causes morphological changes

Compound: Oc1cccc(-c2nc(N3CCOCC3)c3oc4ncccc4c3n2)c1 [PI-103]
effect on anti-proliferative effects of imatinib (p190 transduced cells [2]; 48 hrs MTS, FIG. 19): potentiate the anti-proliferative effects of imatinib | combination index with imatinib (p190 transduced cells [2]; over a broad dose range, FIG. 20): more synergistic than rapamycin | colony formation in combination with dasatinib [5]: stronger effect of dasatinib-PI-103 combination as compared to dasatinib-rapamycin combination | number of cycling leukemic blasts (p190 leukemic cells): significantly reduced the number of cycling leukemic blasts | apoptosis of leukemic blast cells (p190 leukemic cells): induction of apoptosis in leukemic blast cells

Compound: COc1ccc2c(c1OC)N=C(NC(=O)c1cccnc1)N1CCN=C21 [PIK-90, reference compound]
insulin stimulated phosphorylation of Akt at S473 and T308 [6]: inhibit the phosphorylation of both Akt sites equipotently | phosphorylation of Akt T308 [7]: blocks phosphorylation of T308 | phosphorylation of Akt and its substrates [8]: completely inhibited | phosphorylation of 4EBP1 at T37/46 [9]: does not reduce

Compound: CC(C)n1nc(-c2cccc(C(=O)NC3=NCCS3)c2)c2c(N)ncnc21 [PP30]
inhibition of PKCα (PKCα): does not inhibit PKCα significantly | insulin stimulated phosphorylation of Akt at S473 and T308 [6]: inhibit insulin stimulated phosphorylation of Akt at S473 | phosphorylation of 4EBP1 at T37/46 [9]: able to inhibit

Compound: COc1cccc2c1C(=O)c1c(O)c3c(c(O)c1C2=O)C[C@@](O)(C(C)=O)C[C@@H]3O[C@H]1C[C@H](N)[C@H](O)[C@H](C)O1 [daunorubicin]
effective range, partial reduction of colony formation (AML): 3 to 30 nM

Compound: Cc1ccc(NC(=O)c2ccc(CN3CCN(C)CC3)cc2)cc1Nc1nccc(-c2cccnc2)n1 [imatinib]
number of cycling leukemic blasts (p190 leukemic cells): significantly reduced the number of cycling leukemic blasts | apoptosis of leukemic blast cells (p190 leukemic cells): induction of apoptosis in leukemic blast cells | splenomegaly (p190 leukemic cells; oral lavage daily, FIG. 21): significant decrease in splenomegaly | cap-dependent translation [10]: inhibit cap-dependent translation

Compound: CO[C@H]1C[C@@H]2CC[C@@H](C)[C@@](O)(O2)C(=O)C(=O)N2CCCC[C@H]2C(=O)O[C@H]([C@H](C)C[C@@H]2CC[C@@H](O)[C@H](OC)C2)CC(=O)[C@H](C)/C=C(\C)[C@@H](O)[C@@H](OC)C(=O)[C@H](C)C[C@H](C)/C=C/C=C/C=C/1C [rapamycin, reference compound]
body weight [11]: maintained body weight

Compound: CC[C@]1(O)C[C@H]2CN(CCc3c([nH]c4ccccc34)[C@@](C(=O)OC)(c3cc4c(cc3OC)N(C=O)[C@H]3[C@@](O)(C(=O)OC)[C@H](OC(C)=O)[C@]5(CC)C=CCN6CC[C@]43[C@@H]65)C2)C1 [vincristine, reference compound]
effective range, partial reduction of colony formation (Ph− B-ALL): 0.1 to 1 µM
